The values below come from patent US5723719A, “Transgenic mouse as model for diseases involving dopaminergic dysfunction” (Health Research Inc., priority 1995, dated 1998).

Where two headings read alike, the source gives them in different places.

Broadly, the Kd is the free concentration of one partner at which half of the binding sites on the other are occupied at equilibrium, for simple one-to-one binding.

The target in one assay is T1, dopamine D2 receptor (Mus musculus, UniProt P61168).
T1 construct: from tissue; host or cells: striatum of homozygous transgenic (TgX15, chakragati) mice and normal heterozygous litter-mates
The assay is described as follows: Radioligand binding assay of dopamine D2 receptor binding sites in striatum. To be noted: mean ± s.e.m., read-out: KD (dissociation constant between ligand and receptor).

The next assay concerns 6-OHDA-lesioned rodents. Conditions: cited from earlier work.
Another assay relates to chakragati mice. The assay is described as follows: Effect of apomorphine treatment on chakragati mice. The assay is classed as in vivo, mouse. Conditions: chakragati mice versus normal control mice.
Where [1] appears, read: rats unilaterally depleted of dopamine by 6-hydroxydopamine lesions (Ungerstedt 1971).

T1 sequence (P61168 whole entry): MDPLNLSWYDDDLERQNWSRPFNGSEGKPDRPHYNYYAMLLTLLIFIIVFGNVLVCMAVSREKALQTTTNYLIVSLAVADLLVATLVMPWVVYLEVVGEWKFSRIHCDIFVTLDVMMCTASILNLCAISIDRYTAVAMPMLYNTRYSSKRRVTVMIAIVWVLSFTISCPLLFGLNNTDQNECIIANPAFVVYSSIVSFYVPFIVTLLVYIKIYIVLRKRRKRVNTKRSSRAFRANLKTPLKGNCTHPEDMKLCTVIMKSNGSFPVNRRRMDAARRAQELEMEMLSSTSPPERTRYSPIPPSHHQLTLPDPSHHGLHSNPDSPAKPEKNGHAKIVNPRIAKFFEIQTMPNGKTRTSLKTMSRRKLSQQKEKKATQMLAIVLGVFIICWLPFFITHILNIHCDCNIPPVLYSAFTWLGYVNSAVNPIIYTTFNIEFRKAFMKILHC
Method for dopamine D2 receptor: Radioligand binding assays were performed to analyze the density of dopamine D2 receptor binding sites in the striatum of mice of the present invention and normal heterozygous mice. […] The density of dopamine D2 binding sites are assayed by the ability of the striata to maximally bind ^[MUT]-methylspiperone (Bmax). Dissociation constants (KD) between the ligand and receptor were also measured.

Consider `CN1CN(c2ccccc2)C2(CCN(CCCC(=O)c3ccc(F)cc3)CC2)C1=O` [^3 H-N-methylspiperone], for which the equilibrium dissociation constant (Kd) at dopamine D2 receptor (striata of heterozygous litter-mates) came to 73 ± 8 pM; at dopamine D2 receptor (striata of homozygous transgenic mice), 81 ± 13 pM.

`CC(N)Cc1ccccc1` (stereo not drawn) [amphetamine]: in the assay with 6-OHDA-lesioned rodents (setting [1]), the Circling behavior elicited entry is “high rates of circling behavior can be elicited”.

Turning to `CN1CCc2cccc3c2[C@H]1Cc1ccc(O)c(O)c1-3` [apomorphine], in the assay with chakragati mice, the “Effect of treatment on chakragati mice compared to normal control mice (circling)” value is reported as “not significantly differ compared to the normal control mice”. Also, the figures for the Circling behavior elicited entry in the assay with 6-OHDA-lesioned rodents (6-OHDA-lesioned rodents) and in the assay on 6-OHDA-lesioned rodents (setting [1]) were “elicits robust circling behavior” and “high rates of circling behavior can be elicited”, respectively.
